Measurements published in patent US20240148749A1 (priority 2021, published 2024).

Key:
microglial cells = assay: Microglial ROS/RNS, antioxidant defense and bioenergetic/mitochondrial parameters at 21 days; format: in vivo, mouse
Experimental: (§1) Data shown are mean values (±SD). Gray bars represent MnTBAP-treated mice from either CLP or control groups, and black bars represent placebo-treated mice from either CLP or Control groups. Two-way analyses of variance (ANOVAs) (CLP vs control×MnTBAP vs Placebo) were performed. When a significant interaction was observed, planned comparisons were performed for the CLP/Placebo group against the three other groups. The significance of the planned comparisons is indicated with asterisks (*p<0.05, **p<0.01, ***p<0.001, ****p<0.0001) .
as §1, with “Control×MnTBAP” for “control×MnTBAP”, “****p<0.0001).” for “****p<0.0001) .”
MnTBAP is commercially available: it is for example manufactured by Sigma-Aldrich, Calbiochem, etc. For use it is dissolved following the guidance provided by the manufacturer.
Brains were collected for cell dissociation and Cdllb-positive cell separation using a magnetic coupled antibody (MACS® Technology), according to the manufacturer's protocol (Miltenyi Biotec, Bergisch Gladbach, Germany) and as previously described (Schang et al., 2014). In brief, mice were intracardially perfused with NaCl 0,9%. The brains are then dissociated using the Neural Tissue Dissociation Kit containing trypsin and the gentleMACS Octo Dissociator with Heaters. From the resulting brain homogenate, cd11 b-positive cells were enriched using the anti-cd11 b MicroBeads. After elution the isolated cells were centrifuged for 5 min at 200G and conserved at −80° C.
Total RNA was isolated from cells using the RNAeasy Micro kit (Qiagen), and reverse-transcribed using Superscript® III Reverse transcriptase (Invitrogen). Real-time quantitative PCR was performed in duplicate for each sample using Power Sybr Green PCR Master Mix (Applied Biosystems) and the rate of dye incorporation was monitored using the StepOne™ Plus RealTime PCR system (Applied Biosystems). Data were analyzed by StepOne Plus RT PCR software v2.1 and Microsoft excel. Amplification specificity was assessed with a melting curve analysis. TBP transcript levels were used for normalisation of each target (=ΔCT). Real-time PCR CT values were analyzed using the 2^−(ΔCt) method to calculate the fold expression (Schmittgen et al., 2008). The data are presented as relative mRNA units with respect to control group (expressed as fold over control value). Primer sequences available upon request.
Microglial cells and brain samples were resuspended in lysis buffer (50 mM TrisHCI pH 7.5, 150 mM NaCl, 1% Triton X-100, 0.1% SDS, 1 mM EDTA, and protease inhibitor mixture), mechanically homogenized with a piston, briefly vortexed and incubated for 30 min at 4° C. Lysed samples were briefly centrifuged to remove debris, and the whole supernatant extract was collected. Aliquots of the supernatant were immediately used for the assessment of ROS level, RNS level, dual ROS/RNS level, SOD activity, and Acetyl-Coa level. The protein content was determined with the Bradford reagent (Sigma-Aldrich).
Both ROS and RNS were measured by incubating CellROX (Life Technologies) with 30 μg of freshly extracted total proteins for 45 min at 37° C. in the dark in 96-wells plate in triplicate. Fluorescence intensity was measured using near-infra-red fluorescence setting with the plate reader Odyssey Infrared Imaging system scanner and Odyssey application software v3.0 (LI-COR Biosciences, Lincoln, NE).
SOD activity was measured with Superoxide Dismutase Activity Colorimetric Assay kit (Abcam, ab65354), following the manufacturer's instructions. […]

CLP mice = assay: Survival after cecal ligation and puncture (CLP) model of sepsis; format: in vivo, mouse; conditions: CLP-MnTBAP mice, 24 h after CLP; MnTBAP 10 mg/kg IP every 12 h for 48 h
Experimental: A log-rank (Mantel-Cox) p value for trend was calculated.
We used peritonitis induced by CLP as a model of sepsis (Rittirsch et al., 2009). Briefly, animals were anesthetized with ketamine (Imalgene® 1000 100 mg/kg, Merial, France) and Xylazine (Rompun® 2% 20 mg/kg, Bayer, Germany) prior to surgery. After laparotomy, caecum was ligatured at the distal third with a 4.0 suture and the distal part was perforated twice with a 21 Gauge needle.
For use it is dissolved following the guidance provided by the manufacturer.
Clinical score was assessed 6, 12 and 24 hours and 21 days after CLP using a modified SmithKline Beecham, Harwell, Imperial College and Royal London Hospital phenotype assessment (SHIRPA) (Rogers et al., 1997) of the maximum score of fourteen. Weight, temperature and locomotor activity using an open field box were measured at the same time points. We determined survival rate twice a day for 21 days after CLP. The symptoms included in the a modified SmithKline Beecham, Harwell, Imperial College and Royal London Hospital phenotype assessment (SHIRPA) are tremors, periorbital exudates, piloerection, lethargy, vocalisation, positional passivity, no escapement to threat, long transfer arousal and diarrhoea. Each condition was scored from 0 to 2.
Experimental protocols were conducted in accordance with the French and European regulations on Animal Welfare and with Public Health Service recommendations. The experiments were performed on C57BL/6JRj mice (male and female) purchased from Janvier Laboratory. Mice were housed in cages in groups of 7, in a temperature (22±1.5° C.) and humidity-controlled environment, with a 12 h light/dark cycle. All animals used in the study were between 10 and 12 weeks old. Sample-size estimates for animal experiments were based on prior animal-modelling studies used in the Unit for the investigation of caecal ligation and puncture (CLP).
At the end, two groups were compared: CLP-Placebo, CLP-BMX-010. We determined survival rate twice a day for 4 days after CLP.”

[1] = CLP mice + MnTBAP compared to CLP-placebo mice, 21 days
[2] = CLP mice + MnTBAP vs CLP-placebo, 21 days after sepsis, remained different from Control-Placebo
[3] = MnTBAP in control mice vs Control-placebo mice
[4] = MnTBAP in control mice vs Control-placebo mice, p<0.0001
[5] = MnTBAP in control mice vs Control-placebo mice, p=0.0003

## O=C(O)c1ccc(/C2=C3\C=CC(=N3)/C(c3ccc(C(=O)O)cc3)=c3/cc/c4[n]3[Mn]([Cl])[n]3c2ccc3/C(c2ccc(C(=O)O)cc2)=C2/C=CC(=N2)\C=4c2ccc(C(=O)O)cc2)cc1 [MnTBAP, Manganese (III) tetrakis (4-benzoic acid)porphyrin chloride]
Microglial cells; [1]
  microglial OXPHOS/glycolysis ATP balance: strong microglial metabolic shift from mitochondrial OXPHOS to glycolysis
  microglial PGC1 alpha expression: increase
  microglial mtDNA content: strong mtDNA content increase
  microglial mtRNA 16S expression: strong increase
  microglial mtRNA CytB expression: strong increase
Microglial cells; [2]
  microglial NRF2 transcript expression: significantly increasing
  microglial ROS/RNS levels: significantly increasing
  microglial SOD1 transcript expression: significantly increasing
  microglial SOD2 transcript expression: significantly increasing
  microglial SOD activity: significantly increasing
  microglial catalase transcript expression: significantly increasing
Microglial cells; CLP mice, 21 days after sepsis
  sepsis-induced microglial reprogramming and alterations: successfully reversed
Microglial cells; CLP mice, systemic MnTBAP treatment, FIG. 8
  microglial bioenergetic metabolite acetyl-CoA level: reduction
Microglial cells; [3]
  microglial ATP generation: did not affect
  microglial SOD activity: did not affect
  microglial glycolysis contribution: did not affect
Microglial cells; MnTBAP in control mice vs Control-placebo mice, 0.01
  microglial mtDNA content: reduced
Microglial cells; [4]
  microglial NRF2 expression: slightly reduced
  microglial SOD1 expression: slightly reduced
  microglial mtRNA 16S level: reduced
  microglial mtRNA CytB level: reduced
Microglial cells; [5]
  microglial PGC1 alpha expression: reduced
  microglial SOD2 expression: slightly reduced
Microglial cells; MnTBAP in control mice vs Control-placebo mice, p=0.0036
  microglial catalase expression: slightly reduced
Microglial cells; MnTBAP in control mice vs Control-placebo mice, p=0.005
  microglial ROS/RNS levels: slightly reduced
CLP mice
  mice alive: 66%
